# Source: ChEMBL document CHEMBL1201861, “Genomics of Drug Sensitity in Cancer screening data, Wellcome Trust Sanger Institute”
# Columns and labels:
# Experiment in all cases: cells
# PA-1 = assay type: functional, cell-based, Homo sapiens; details: Homo sapiens, PA-1;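 further: IC50 for suppression of PA-1 cell proliferation, determined with a cell viability read-out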
# Description: SANGER: Inhibition of human PA-1 cell growth in a cell viability assay.
# LU-139 = assay type: functional, cell-based; details: Homo sapiens
# Description: SANGER: Inhibition of human LU-139 cell growth in a cell viability assay.
# NCI-H747 = assay type: functional, cell-based; details: Homo sapiens;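 further: growth inhibition of human NCI-H747 cells, read out by a cell viability assay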
# Description: SANGER: Inhibition of human NCI-H747 cell growth in a cell viability assay.
# LS-513 = assay type: functional, cell-based, Homo sapiens; details: Homo sapiens, LS-513
# Description: SANGER: Inhibition of human LS-513 cell growth in a cell viability assay.
# HT-3 = assay type: functional, cell-based, Homo sapiens; details: Homo sapiens, HT-3;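 further: growth inhibition measured with a cell viability readout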
# Description: SANGER: Inhibition of human HT-3 cell growth in a cell viability assay.
# A-375 = assay type: functional, cell-based, Homo sapiens; details: Homo sapiens, A-375;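 further: growth inhibition of A375 cells, read out with a cell viability assay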
# Description: SANGER: Inhibition of human A375 cell growth in a cell viability assay.
# KYSE-520 cell line = assay type: functional, cell-based, Homo sapiens; details: Homo sapiens, KYSE-520;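 further: growth inhibition of human KYSE-520 cells, read out with a viability assay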
# Description: SANGER: Inhibition of human KYSE-520 cell growth in a cell viability assay.
# TE-12 = assay type: functional, cell-based; details: Homo sapiens;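 further: growth inhibition of TE-12 cells, read out by a cell viability assay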
# Description: SANGER: Inhibition of human TE-12 cell growth in a cell viability assay.
# HH = assay type: functional, cell-based; details: Homo sapiens
# Description: SANGER: Inhibition of human HH cell growth in a cell viability assay.
# MPP-89 = assay type: functional, cell-based, Homo sapiens; details: Homo sapiens, MPP-89;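 further: growth inhibition of human MPP-89 cells, read out with a cell viability assay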
# Description: SANGER: Inhibition of human MPP-89 cell growth in a cell viability assay.
# P12-Ichikawa = assay type: functional, cell-based; details: Homo sapiens
# SF-295 = assay type: functional, cell-based, Homo sapiens; details: Homo sapiens, SF-295;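 further: growth inhibition of SF-295 cells, read out with a cell viability assay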
# Description: SANGER: Inhibition of human SF295 cell growth in a cell viability assay.
# NCI-H2126 = assay type: functional, cell-based, Homo sapiens; details: Homo sapiens, NCI-H2126;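 further: growth inhibition of the cancer cell line, determined with a cell viability readout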
# Description: SANGER: Inhibition of human NCI-H2126 cell growth in a cell viability assay.
# A-431 = assay type: functional, cell-based, Homo sapiens; details: Homo sapiens, A-431;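 further: growth inhibition of A-431 cells, determined with a cell viability read-out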
# Description: SANGER: Inhibition of human A431 cell growth in a cell viability assay.
# Detroit 562 = assay type: functional, cell-based, Homo sapiens; details: Homo sapiens, Detroit 562;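 further: growth inhibition of human Detroit 562 cells, read out by a cell viability assay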
# Description: SANGER: Inhibition of human Detroit562 cell growth in a cell viability assay.
# SW837 = assay type: functional, cell-based, Homo sapiens; details: Homo sapiens, SW837;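 further: growth inhibition of SW837 cells, determined with a cell viability assay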
# Description: SANGER: Inhibition of human SW837 cell growth in a cell viability assay.
# Ca9-22 = assay type: functional, cell-based, Homo sapiens; details: Homo sapiens, Ca9-22;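 further: growth inhibition of Ca9-22 cells, read out with a cell viability assay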
# Description: SANGER: Inhibition of human Ca9-22 cell growth in a cell viability assay.
# RERF-LC-MS = assay type: functional, cell-based, Homo sapiens; details: Homo sapiens, RERF-LC-MS;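 further: growth inhibition of human RERF-LC-MS cells, read out by a cell viability assay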
# Description: SANGER: Inhibition of human RERF-LC-MS cell growth in a cell viability assay.
# GT3TKB = assay type: functional, cell-based, Homo sapiens; details: Homo sapiens, GT3TKB;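 further: growth inhibition of the cell line, read out with a cell viability assay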
# Description: SANGER: Inhibition of human GT3TKB cell growth in a cell viability assay.
# NCI-H2087 = assay type: functional, cell-based, Homo sapiens; details: Homo sapiens, NCI-H2087;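 further: growth inhibition determined with a cell viability readout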
# Description: SANGER: Inhibition of human NCI-H2087 cell growth in a cell viability assay.
# AGS = assay type: functional, cell-based, Homo sapiens; details: Homo sapiens, AGS;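 further: growth inhibition of AGS cells, determined with a cell viability assay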
# Description: SANGER: Inhibition of human AGS cell growth in a cell viability assay.
# NCI-H720 = assay type: functional, cell-based; details: Homo sapiens;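 further: growth inhibition of human NCI-H720 cells determined by a cell viability assay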
# Description: SANGER: Inhibition of human NCI-H720 cell growth in a cell viability assay.
# CW-2 = assay type: functional, cell-based, Homo sapiens; details: Homo sapiens, CW-2;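 further: growth inhibition of CW-2 cells, read out by a cell viability assay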
# Description: SANGER: Inhibition of human CW-2 cell growth in a cell viability assay.
# FaDu = assay type: functional, cell-based, Homo sapiens; details: Homo sapiens, FaDu;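 further: cell viability readout of growth inhibition in FaDu cells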
# Description: SANGER: Inhibition of human FADU cell growth in a cell viability assay.
# NCI-H650 = assay type: functional, cell-based, Homo sapiens; details: Homo sapiens, NCI-H650;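 further: growth inhibition of NCI-H650 cells, read out by a viability assay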
# Description: SANGER: Inhibition of human NCI-H650 cell growth in a cell viability assay.
# PC-3 = assay type: functional, cell-based, Homo sapiens; details: Homo sapiens, PC-3;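 further: cell viability assay measuring growth inhibition of PC-3 cells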
# Description: SANGER: Inhibition of human PC-3 cell growth in a cell viability assay.
# ONS-76 = assay type: functional, cell-based, Homo sapiens; details: Homo sapiens, ONS-76;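 further: growth inhibition of human ONS-76 cells, read out with a cell viability assay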
# Description: SANGER: Inhibition of human ONS-76 cell growth in a cell viability assay.
# MDA-MB-415 = assay type: functional, cell-based; details: Homo sapiens
# NEC8 = assay type: functional, cell-based, Homo sapiens; details: Homo sapiens, NEC8;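 further: growth inhibition of human NEC8 cells, read out by a cell viability assay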
# Description: SANGER: Inhibition of human NEC8 cell growth in a cell viability assay.
# EM-2 = assay type: functional, cell-based; details: Homo sapiens;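 further: growth inhibition of EM-2 cells, read out with a cell viability assay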
# Description: SANGER: Inhibition of human EM-2 cell growth in a cell viability assay.
# SK-HEP1 = assay type: functional, cell-based, Homo sapiens, SK-HEP-1; details: Homo sapiens, SK-HEP1;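 further: cell viability readout used to quantify reduction in proliferation of human SK-HEP-1 cells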
# Description: SANGER: Inhibition of human SK-HEP-1 cell growth in a cell viability assay.
# NOS-1 = assay type: functional, cell-based, Homo sapiens; details: Homo sapiens, NOS-1;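 further: growth inhibition of the human NOS-1 cell line, read out with a cell viability assay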
# Description: SANGER: Inhibition of human NOS-1 cell growth in a cell viability assay.
# HEC-1 = assay type: functional, cell-based, Homo sapiens; details: Homo sapiens, HEC-1;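 further: growth inhibition of the cell line, read out with a cell viability assay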
# Description: SANGER: Inhibition of human HEC-1 cell growth in a cell viability assay.
# LCLC-97TM1 = assay type: functional, cell-based, Homo sapiens; details: Homo sapiens, LCLC-97TM1;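 further: cell viability assay measuring growth inhibition of human LCLC-97TM1 cells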
# Description: SANGER: Inhibition of human LCLC-97TM1 cell growth in a cell viability assay.
# HEL = assay type: functional, cell-based, Homo sapiens; details: Homo sapiens, HEL;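 further: growth inhibition of HEL cells, read out with a cell viability assay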
# Description: SANGER: Inhibition of human HEL cell growth in a cell viability assay.
# J82 = assay type: functional, cell-based; details: Homo sapiens;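 further: growth inhibition of J82 cells, read out with a cell viability assay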
# Description: SANGER: Inhibition of human J82 cell growth in a cell viability assay.
# KU-19-19 = assay type: functional, cell-based, Homo sapiens; details: Homo sapiens, KU-19-19
# Description: SANGER: Inhibition of human KU-19-19 cell growth in a cell viability assay.
# HT = assay type: functional, cell-based; details: Homo sapiens
# Description: SANGER: Inhibition of human HT cell growth in a cell viability assay.
# EW-13 = assay type: functional, cell-based; details: Homo sapiens;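 further: growth inhibition of EW-13 cells, read out with a cell viability assay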
# Description: SANGER: Inhibition of human EW-13 cell growth in a cell viability assay.
# LAMA-84 = assay type: functional, cell-based; details: Homo sapiens;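 further: growth inhibition of LAMA-84 cells, read out with a cell viability assay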
# Description: SANGER: Inhibition of human LAMA-84 cell growth in a cell viability assay.
# NCI-H2228 = assay type: functional, cell-based, Homo sapiens; details: Homo sapiens, NCI-H2228;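 further: growth inhibition of human NCI-H2228 cells, read out by a cell viability assay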
# Description: SANGER: Inhibition of human NCI-H2228 cell growth in a cell viability assay.
# LB2518-MEL = assay type: functional, cell-based, Homo sapiens; details: Homo sapiens, LB2518-MEL;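 further: growth inhibition of human LB2518-MEL cells, measured with a cell viability assay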
# Description: SANGER: Inhibition of human LB2518-MEL cell growth in a cell viability assay.
# TE-9 = assay type: functional, cell-based, Homo sapiens; details: Homo sapiens, TE-9;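 further: cell growth inhibition, measured with a cell viability readout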
# Description: SANGER: Inhibition of human TE-9 cell growth in a cell viability assay.
# A3-KAW = assay type: functional, cell-based; details: Homo sapiens;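 further: growth inhibition of human A3-KAW cells, read out with a cell viability assay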
# Description: SANGER: Inhibition of human A3-KAW cell growth in a cell viability assay.
# CAL-85-1 = assay type: functional, cell-based; details: Homo sapiens;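 further: growth inhibition of human CAL-85-1 cells, read out with a cell viability assay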
# Description: SANGER: Inhibition of human CAL-85-1 cell growth in a cell viability assay.
# HPAF-II = assay type: functional, cell-based, Homo sapiens; details: Homo sapiens, HPAF-II;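 further: growth inhibition of HPAF-II cells, read out with a cell viability assay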
# Description: SANGER: Inhibition of human HPAF-II cell growth in a cell viability assay.
# AM-38 = assay type: functional, cell-based, Homo sapiens; details: Homo sapiens, AM-38;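 further: growth inhibition of AM-38 cells of human origin, read out by a cell viability assay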
# Description: SANGER: Inhibition of human AM-38 cell growth in a cell viability assay.
# COLO-824 = assay type: functional, cell-based, Homo sapiens; details: Homo sapiens, COLO-824
# Description: SANGER: Inhibition of human COLO-824 cell growth in a cell viability assay.
# LS-411N = assay type: functional, cell-based, Homo sapiens; details: Homo sapiens, LS-411N
# PSN1 = assay type: functional, cell-based, Homo sapiens; details: Homo sapiens, PSN1;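 further: suppression of growth of human PSN1 cells, read out by a cell viability assay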
# Description: SANGER: Inhibition of human PSN1 cell growth in a cell viability assay.
# Ca-Ski = assay type: functional, cell-based; details: Homo sapiens;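 further: cell viability assay measuring inhibition of Ca-Ski cell growth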
# Description: SANGER: Inhibition of human Ca-Ski cell growth in a cell viability assay.
# COLO-678 = assay type: functional, cell-based, Homo sapiens; details: Homo sapiens, COLO-678
# Description: SANGER: Inhibition of human COLO-678 cell growth in a cell viability assay.
# Capan-2 = assay type: functional, cell-based, Homo sapiens; details: Homo sapiens, Capan-2;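 further: Capan-2 cell growth inhibition, read out with a viability assay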
# Description: SANGER: Inhibition of human Capan-2 cell growth in a cell viability assay.
smiles,measurement,setting,value
CC(=O)O[C@@]12CO[C@@H]1C[C@H](O)[C@@]1(C)C(=O)[C@H](O)C3=C(C)[C@@H](OC(=O)[C@H](O)[C@@H](NC(=O)OC(C)(C)C)c4ccccc4)C[C@@](O)([C@@H](OC(=O)c4ccccc4)[C@H]21)C3(C)C [DOCETAXEL],IC50,PA-1,0.687 nM
same,IC50,LU-139,> 10 nM
same,IC50,NCI-H747,> 10 nM
same,IC50,LS-513,> 10 nM
same,IC50,HT-3,2.82 nM
same,IC50,A-375,1.21 nM
same,IC50,KYSE-520 cell line,7 nM
same,IC50,TE-12,> 10 nM
same,IC50,HH,> 10 nM
same,IC50,MPP-89,5.67 nM
same,IC50,P12-Ichikawa,0.745 nM
same,IC50,SF-295,> 10 nM
same,IC50,NCI-H2126,7.73 nM
same,IC50,A-431,> 10 nM
same,IC50,Detroit 562,0.902 nM
same,IC50,SW837,> 10 nM
same,IC50,Ca9-22,0.423 nM
same,IC50,RERF-LC-MS,1.13 nM
same,IC50,GT3TKB,0.232 nM
same,IC50,NCI-H2087,7.48 nM
same,IC50,AGS,3.28 nM
same,IC50,NCI-H720,0.58 nM
same,IC50,CW-2,> 10 nM
same,IC50,FaDu,5.1 nM
same,IC50,NCI-H650,2.25 nM
same,IC50,PC-3,> 10 nM
same,IC50,ONS-76,3.22 nM
same,IC50,MDA-MB-415,2.74 nM
same,IC50,NEC8,0.561 nM
same,IC50,EM-2,6.23 nM
same,IC50,SK-HEP1,2.34 nM
same,IC50,NOS-1,> 10 nM
same,IC50,HEC-1,3.03 nM
same,IC50,LCLC-97TM1,1.44 nM
same,IC50,HEL,> 10 nM
same,IC50,J82,> 10 nM
same,IC50,KU-19-19,> 10 nM
same,IC50,HT,> 10 nM
same,IC50,EW-13,> 10 nM
same,IC50,LAMA-84,> 10 nM
same,IC50,NCI-H2228,7.25 nM
same,IC50,LB2518-MEL,> 10 nM
same,IC50,TE-9,0.676 nM
same,IC50,A3-KAW,> 10 nM
same,IC50,CAL-85-1,> 10 nM
same,IC50,HPAF-II,9.26 nM
same,IC50,AM-38,> 10 nM
same,IC50,COLO-824,5.9 nM
same,IC50,LS-411N,3.14 nM
same,IC50,PSN1,0.581 nM
same,IC50,Ca-Ski,0.728 nM
same,IC50,COLO-678,> 10 nM
same,IC50,Capan-2,> 10 nM
